ChEMBL document CHEMBL1133399, “2-(Alkylthio)pyrimidin-4-ones as novel, reversible inhibitors of lipoprotein-associated phospholipase A2” (Bioorg Med Chem Lett, 2000)

What was measured:
[1] = target: T1, Platelet-activating factor acetylhydrolase (Homo sapiens, UniProt Q13093); test: Inhibition of lipoprotein-associated phospholipase A2 (Lp-PLA2)
T1 sequence (Q13093 whole entry): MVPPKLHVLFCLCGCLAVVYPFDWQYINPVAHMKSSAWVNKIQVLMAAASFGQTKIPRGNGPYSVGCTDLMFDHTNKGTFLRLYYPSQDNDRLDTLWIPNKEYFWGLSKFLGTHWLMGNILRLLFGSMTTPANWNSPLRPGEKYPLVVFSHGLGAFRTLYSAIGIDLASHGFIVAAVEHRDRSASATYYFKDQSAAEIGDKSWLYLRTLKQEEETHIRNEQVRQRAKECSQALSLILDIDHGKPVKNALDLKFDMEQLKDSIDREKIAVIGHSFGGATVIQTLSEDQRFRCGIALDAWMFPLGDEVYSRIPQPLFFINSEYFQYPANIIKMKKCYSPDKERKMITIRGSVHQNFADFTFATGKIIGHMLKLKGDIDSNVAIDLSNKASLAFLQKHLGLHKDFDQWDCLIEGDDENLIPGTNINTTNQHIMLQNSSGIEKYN

[2] = target: T1, Platelet-activating factor acetylhydrolase; test: The compound was tested for inhibition of Lipoprotein-associated phospholipase A2 (Lp-PLA2)
[3] = target: T2, Platelet-activating factor acetylhydrolase (Homo sapiens) (UniProt Q13093); test: The compound was tested for inhibition of Lipoprotein-associated phospholipase A2 (Lp-PLA2) at 10 uM
T2 sequence (whole entry): T1 sequence (Q13093 whole entry)

[4] = target: T2, Platelet-activating factor acetylhydrolase (Homo sapiens); test: The compound was tested for inhibition of Lipoprotein-associated phospholipase A2 (Lp-PLA2) at 30 uM

Row | IC50 [1] [nM] | also measured | Compound
1 | 4400 |  | O=c1[nH]c(SCc2ccccc2)ncc1Cc1ccncc1
2 | 850 |  | Oc1nc(SCc2ccc(F)cc2)ncc1Cc1cncnc1
3 | 2300 |  | O=c1[nH]c(SCCCCCCc2ccccc2)ncc1Cc1cccnc1
4 | 72 | Ki [2]: 41 nM | Cn1ccc(Cc2cnc(SCCCCCCCC(=O)c3ccc(Cl)cc3)[nH]c2=O)cc1=O
5 | 4400 |  | O=c1[nH]c(SCc2ccc(Cl)cc2)ncc1Cc1cccnc1
6 | 1000 |  | Cc1ccc(Cc2cnc(SCCCCCCCc3ccccc3)nc2O)cn1
7 | 640 |  | O=C(CCCCCCCSc1ncc(Cc2cnccn2)c(=O)[nH]1)c1ccc(Cl)cc1
8 |  | inhibition [3]: 40% | Cc1nc(SCCCCCCCC(=O)c2ccc(Cl)cc2)nc(O)c1Cc1cccnc1
9 | 230 |  | Oc1nc(SCCCCCCCOc2ccc(Cl)cc2)ncc1Cc1cccnc1
10 | 430 |  | Oc1nc(SCCCCCCCCCc2ccccc2)ncc1Cc1cccnc1
11 |  | inhibition [3]: 0% | Oc1nc(SCCCCCCCCc2ccccc2)ncc1Cc1ccccc1
12 | 780 |  | CCCCn1ccc(Cc2cnc(SCCCCCCCCc3ccccc3)nc2O)cc1=O
13 |  | inhibition [3]: 41% | O=C(NCCCCCCSc1ncc(Cc2cccnc2)c(O)n1)c1ccc(Cl)cc1
14 | 1100 |  | Oc1nc(SCc2ccccc2)ncc1Cc1cncnc1
15 | 200 |  | Oc1nc(SCCCCCCCCc2ccc(Cl)cc2)ncc1Cc1cccnc1
16 | 850 |  | O=c1[nH]c(SCCCCCCCCc2cccc(Cl)c2)ncc1Cc1cccnc1
17 | 12000 |  | Cc1ccc(Cc2cnc(OCCCCc3ccccc3)nc2O)cn1
18 | 1000 |  | COc1cc(Cc2cnc(SCCCCCCCCc3ccccc3)nc2O)ccn1

Row | IC50 [1] [nM] | also measured | Compound
19 | 64 |  | O=C(CCCCCCCOc1ncc(Cc2cccnc2)c(=O)[nH]1)c1ccc(Cl)cc1
20 | 650 |  | O=C(CCCCCCCCSc1ncc(Cc2cccnc2)c(=O)[nH]1)c1ccc(Cl)cc1
21 | 630 |  | O=c1[nH]c(SCCCCCCCCc2ccccc2)ncc1Cc1ccncc1
22 |  | inhibition [3]: 38% | Oc1nc(SCCCCCCCCc2ccccc2)ncc1Cc1ccccn1
23 | 990 |  | Cc1ccc(Cc2cnc(SCCCCCCCCCc3ccccc3)nc2O)cn1
24 | 2900 |  | CC(=O)c1ccc(CCCCCCCCSc2ncc(Cc3cccnc3)c(O)n2)cc1
25 | 110 |  | O=C(CCCCCCCSc1ncc(Cc2cccnc2)c(O)n1)c1ccc(Cl)cc1
26 | 1100 |  | O=c1[nH]c(SCc2ccccc2)ncc1Cc1cccnc1
27 |  | inhibition [3]: 63% | Oc1nc(SCCCCCCCCc2ccccc2)ncc1Cc1ccoc1
28 | 54 |  | O=C(CCCCCCCSc1ncc(Cc2cncnc2)c(O)n1)c1ccc(Cl)cc1
29 | 1300 |  | O=C(CCCCCCCSc1ncc(Cc2cccnc2)c(O)n1)c1cccs1
30 |  | inhibition [3]: 0% | O=C(CSc1ncc(Cc2cccnc2)c(O)n1)c1ccccc1
31 | 17000 |  | [O-][S+](CCCCCCCSc1ncc(Cc2cccnc2)c(O)n1)c1ccc(Cl)cc1 (configuration not stated)
32 | 1200 |  | Cc1ccc(Cc2cnc(SCCCCCCOCc3ccc(Cl)cc3)[nH]c2=O)cn1
33 |  | inhibition [4]: 10% | Cc1ccc(Cc2cnc(SCCCc3ccccc3)nc2O)cn1
34 | 1100 |  | COc1ccc(CCCCCCCCSc2ncc(Cc3ccc(C)nc3)c(O)n2)cc1
35 | 250 |  | Oc1nc(SCCCCCCCSc2ccc(Cl)cc2)ncc1Cc1cccnc1
36 | 12600 |  | O=S(=O)(CCCCCCCSc1ncc(Cc2cccnc2)c(O)n1)c1ccc(Cl)cc1
